The values that follow come from patent publication US8263056B2, “Dyed-hair-binding peptides and peptide-based hair reagents for personal care” (E I du Pont de Nemours and Company, priority 2007, dated 2012).

For the experiment the following is noted: read-out: EC50 (concentration at which half the maximum binding was observed by measuring A405 nm), binding to dyed hair, ELISA-type assay. From the text:
Each selection round was monitored for enrichment of phage displaying dyed-hair-binding peptides using ELISA-like assays in the deep well plates performed using an anti-M13 phage antibody conjugated to horseradish-peroxidase, followed by the addition of a chromogenic agent ABTS (2,2′-azino-bis(3-ethylbenzthiazoline-6-sulphonic acid)). The plates were read at 405 nm.
Relative binding strengths of the phage can also be determined by testing serial dilutions of the phage for binding to dyed hair in an ELISA. For example, serial dilutions of the display-selected clones were exposed to dyed hair in an ELISA. […] Primers against the phage vector sequence (available from New England BIOLABS®) that flank the insertion site were used to determine the DNA sequence encoding the peptide for the phage in each group. […] The DNA sequences encoding dyed-hair-binding peptides isolated were determined. Peptides Dye-1 through Dye-16 were those sequenced after round 4 of selection. Peptides Dye 17 through Dye-28 were those isolated and sequenced after a fifth round of selection.
The ELISA-type assay described in Example 1 was used to evaluate the affinity of dyed-hair-binding peptides for dyed hair. All of the synthesize peptides in Table 2 were evaluated for their ability to bind to dyed hair versus two negative controls (a non-selected peptide and a blank (no peptide)).
The EC50 values (the concentration at which half the maximum binding was observed by measuring A405 nm) were deduced and given in Table 3.
On the technique in general: ELISA stands for enzyme-linked immunosorbent assay.

With “LLSDFHYGDMWDASR-GSSGK (biotin) [Aff15016]”, the EC50 was approximately 1 µM.

NYNYNYNYQYSSR-GSSGK (biotin) [Aff15011]: the EC50 is more than 10 µM.

As to QYYQDYQYYHSSR-GSSK (biotin) [Aff15029], the EC50 was approximately 1 µM.

Turning to “SSNDSNVSWFHYYASGLTSSR-GSSG-SRKSSQKNPHHPKPPKKPTAR-GSSGK (biotin) [Aff15025]”, the EC50 is approximately 0.025 µM.

In the case of “SSNDSNVSWFHYYASGLTSSR-GSSGK-(biotin) [Aff15013]”, the EC50 was approximately 1 µM.

Take YHYDYDHYYESSR-GSSGK (biotin) [Aff15030]: the EC50 is approximately 1 µM.

Regarding YYYDYYQQDYSSR-GSSGK (biotin) [Aff15027], the EC50 was approximately 1 µM.
